This is an account of results in US12492195B2, “Preparation method for and crystal form of 3-aryloxy-3-five-membered heteroaryl-propylamine compound” (Zhangzhou Pien Tze Huang Pharmaceutical Co., Ltd., priority 2020, dated 2025).

A word on the solubility: it is the dissolved amount per volume that the medium holds. Low values mean a poorly soluble substance, high ones a readily soluble substance.

The procedure of series [1]: In the experiment, the initial dosage of crystal form A of the hydrochloride salt in H2O, SGF, and FaSSIF was about 20 mg/mL, and the initial dosage in FeSSIF was about 40 mg/mL. […] The samples were sealed and mounted on a rotating disk rotating at 25 rpm, and the rotating disk was placed in a 37° C. incubator. Samples were taken at time points 1, 4 and 24 hours of equilibration, and the filtrate was separated and tested concentration by HPLC.

For series [2] the following is noted: 24 hours. As to the method: The crystal form A of the hydrochloride salt of the compound of formula Ic-1 was tested for equilibrium solubility in water for 24 hours at room temperature. The form A was dosed with about 300 mg/mL solid feed, and magnetic stirred (750 rpm) in water for 24 hours to obtain a suspension. After centrifugation, the supernatant was filtered through a 0.22-μm PTFE membrane and then tested by HPLC, and the obtained solid was tested by XRPD.

Series [3] in a line: Hygroscopicity test by dynamic moisture absorption (DVS). It is filed as physicochemical. As to the method: Dynamic moisture adsorption (DVS) analysis: the instrument is a DVS Intrinsic produced by SMS company (Surface Measurement Systems); temperature, 25° C.; carrier gas, flow rate: nitrogen, 200 ml/min; mass change per unit time: 0.002%/min: relative humidity range: 0/oRH-95% RH.
Dynamic moisture absorption (DVS) was used to test their hygroscopicity.

Converted amounts (≈) assume the structure as drawn. Where two headings read alike, the source gives them in different places.

For the molecule `CNCC[C@@H](Oc1cccc2ccoc12)c1cccs1` [Form A], the “solubility” value in series [1] (FaSSIF pH 6.5, 37° C., 1 hour) was 20.2 mg/mL (≈ 70.3 mM); in series [1] (FaSSIF pH 6.5, 37° C., 4 hours), 20.7 mg/mL (≈ 72 mM); in series [1] (FaSSIF pH 6.5, 37° C., 24 hours) it was 20.8 mg/mL (≈ 72.4 mM); in series [1] (FeSSIF pH 5.0, 37° C., 1 hour) it was 32.8 mg/mL (≈ 114 mM); in series [1] (FeSSIF pH 5.0, 37° C., 4 hours), 36.8 mg/mL (≈ 128 mM); in series [1] (FeSSIF pH 5.0, 37° C., 24 hours) it was 39.4 mg/mL (≈ 137 mM). The “solubility” value in series [1] (SGF pH 1.9, 37° C., 1 hour) came out at 16.5 mg/mL (≈ 57.4 mM); in series [1] (SGF pH 1.9, 37° C., 4 hours), 14.8 mg/mL (≈ 51.5 mM); in series [1] (SGF pH 1.9, 37° C., 24 hours), 11.1 mg/mL (≈ 38.6 mM); in series [1] (Water, 37° C., 1 hour) it was 16.7 mg/mL (≈ 58.1 mM); in series [1] (Water, 37° C., 4 hours), 17.7 mg/mL (≈ 61.6 mM); in series [1] (Water, 37° C., 24 hours) it was 17.3 mg/mL (≈ 60.2 mM). Also, the “solubility in water (concentration of free state)” value in series [2] (room temperature) turned out to be 21 ± 0.5 mg/mL. The “solubility in water converted to hydrochloride concentration” value in series [2] (room temperature) is reported as 237.3 mg/mL (≈ 826 mM). Besides, in series [2] (water), the “solid crystal form after the equilibrium solubility test (XRPD)” value is “solid crystal form did not change”. In series [3], the “change in crystal form (XRPD) before and after the DVS test” value is given as “no change in crystal form was observed”.
